Results taken from US20250382280A1, “PYRAZOLE DERIVATIVES FOR THE INHIBITION OF PHAGOCYTOSIS” (Canadian Blood Services, priority 2022, published 2025).
Read-outs that look alike come from different tables or passages of the source.

Tested on: phagocytosis of anti-D-opsonized Rh(D+) red cells by monocytes
Assay: monocyte monolayer assay (MMA), in vitro phagocytosis assay
Format: cell-based, human
Design: key to Phagocytic index (PI): number of phagocytosed RBCs per 100 monocytes
Conditions: for Phagocytic index (PI): PI = (# of phagocytic red blood cells)/(300 monocytes) * 100; for IC50: 0.5-100 μM, read-out: IC50 for inhibition of phagocytosis
Description: The MMA to screen compounds for their ability to inhibit phagocytosis was performed as previously described (Purohit, M. K. et al., Bioorg. Med. Chem. Lett. 2013; 23:2324-7; and Purohit, M. K. et al., Bioorg. Med. Chem. 2014; 22:2739-52.). Briefly, Mononuclear cells (PBMCs) were layered onto chamber slides and monocytes purified by adherence after 1 hr at 37° C. with 5% CO2. Drugs were solubilized in 100% DMSO and then diluted in Roswell Park Memorial Institute (RPMI) to the final concentration of 5 μM, as previously reported (8,9). Corresponding dimethyl sulfoxide (DMSO) volumes in RPMI medium were used as a control. After one hour, indicator Rh-positive red cells opsonized with anti-RhD were added to the chamber slides and then further incubated for 2 hours before fixing and counting phagocytosed red blood cells (RBCs) using phase-contrast microscopy. As a positive control for inhibition, Intravenous immunoglobulin (IVIg) was used, known to inhibit phagocytosis due to blocking of FcγRs. The phagocytosis index (PI) was determined as the number of phagocytosed RBCs in 100 monocytes. The percent inhibition of phagocytosis was determined by comparing the PI in each treated sample to the PI in the untreated sample, which was determined by normalizing the PI concentration in each treated sample (phagocytosis of opsonized RBCs with vehicle only, representing 100 percent phagocytosis.
Concentrations included 100 μM, 50 μM, 25 μM, 10 μM, 5 μM, 2.5 μM, 1 μM, and 0.5 μM.
The 80 selected pyrazole core compounds were screened using a concentration of 5 μM in the in vitro phagocytosis assay, referred to as the monocyte monolayer assay (MMA). Compounds were compared to a standard intravenous immunoglobulin (IVIg) at a concentration of 1 mg/mL.

[1] = Homo sapiens, Monocyte, 5 μM compound, screening of the 80 compounds, read-out: Average inhibition (% ± standard deviation)
[2] = Homo sapiens, Monocyte, 5 μM, anti-D-opsonized Rh(D+) red cells, read-out: Inhibition percentage
[3] = Homo sapiens, Monocyte, dose-inhibitory response

Structure (SMILES) | inhibition at 5 µM [1] [%] | also measured
CN(C)C(=O)c1cn(-c2ccccc2)nc1-c1ccccc1 [KB-132] | -9 ± 3.47 | –
CCOC(=O)C1=NNC2C(=O)N(CC)C(=O)C12 (centres unmarked) [KB-133] | 24 ± 8.98 | –
COC(=O)c1n[nH]c(N)c1Cl [KB-134] | 9 ± 6.99 | –
Cc1cc(-c2ccco2)n(-c2ccccc2)n1 [KB-135] | 18 ± 2.7 | –
Cc1nn(-c2ccccc2)c2sc(C(=O)NCCO)cc12 [KB-136] | -4 ± 1.82 | –
Cc1cc(C)n(S(=O)(=O)c2ccccc2)n1 [KB-137] | 10 ± 1.21 | –
Cc1n[nH]c(C)c1Sc1ccc(Cl)cc1 [KB-138] | 38 ± 6.56 | –
Cc1cccc(OCCCc2c(C)n[nH]c2C)c1C [KB-139] | 6 ± 3.48 | –
CCOc1ccc(NC(=O)c2cnn(-c3ccccc3)c2NC(=O)c2ccco2)cc1 [KB-140] | 31 ± 7.84 | –
Cc1cc(C)n(C(=O)COc2ccccc2C)n1 [KB-141] | 36 ± 9.37 | –
Cc1cc(C)n(C(=O)c2ccoc2C)n1 [KB-142] | 11 ± 6.51 | –
Cc1sc2ncnc(-n3ncc(C#N)c3N)c2c1C [KB-143] | 10 ± 6.87 | –
Cc1c(NC(=O)C2CCN(S(=O)(=O)c3cccs3)CC2)c(=O)n(-c2ccccc2)n1C [KB-145] | 4 ± 0.06 | –
CCn1cc(Br)c(C(=O)Nc2cc(Cl)ccc2OC)n1 [KB-146] | 10 ± 9.56 | –
Cn1ncc(Br)c1C(=O)Oc1ccccc1Cl [KB-147] | 0 | –
Cn1cc(Cl)c(C(=O)Nc2ccc(F)cc2F)n1 [KB-148] | 28 ± 9.62 | –
Cc1c(Nc2ncnc3c2cnn3-c2ccccc2)c(=O)n(-c2ccccc2)n1C [KB-149] | 0 | –
CCn1ncc(Br)c1C(=O)NC1CCCCC1 [KB-150] | 24 ± 8.58 | –
COc1ccc(-c2nc(-n3c(C)c(C(C)=O)c(C(C)=O)c3C)sc2C)cc1OC [KB-152] | 2 ± 8.84 | –
Cc1cc2c(cc1C)NC(c1c(C)n(C)n(-c3ccccc3)c1=O)C1=C(CC(C)(C)CC1=O)N2 (centres unmarked) [KB-153] | 8 ± 8.3 | –
COc1ccc(C2=NN(C(C)=O)C(c3ccco3)C2)cc1OC (centres unmarked) [KB-154] | 2 ± 5.19 | –
CCc1ccc(C2CC(c3ccccc3)=NN2S(C)(=O)=O)cc1 (centres unmarked) [KB-155] | 8 ± 9.35 | –

Structure (SMILES) | inhibition at 5 µM [1] [%] | also measured
CCOC(=O)c1c(N)nn(C(=O)CC)c1-c1ccccc1 [KB-156] | 2 ± 6.64 | –
O=C1NC(=O)C2C1C(c1ccc(O)cc1)NN2Cc1ccccc1 (centres unmarked) [KB-157] | 3 ± 9.96 | –
COC(=O)N1N=C(C2CCCCC2)CC1(O)C(F)(F)F (centres unmarked) [KB-158] | 0 | –
CCOC(=O)c1cnn(-c2ccccc2)c1NC(=O)Cc1cccc(OC)c1 [KB-159] | 15 ± 8.4 | –
Cn1ncc(I)c1C(=O)Nc1cccc2ccccc12 [KB-160] | -2 ± 5.32 | –
CC(=O)N1N=C(c2cccs2)CC1c1ccccc1C (centres unmarked) [KB-161] | 7 ± 8.43 | –
CCOC(=O)c1cnn(-c2nc3sc4c(c3c(=O)[nH]2)CCCC4)c1N [KB-162] | -37 ± 2.59 | –
Cc1ccc2nc(-c3ccc4c(c3)OCO4)cc(C(=O)Nc3c(C)n(C)n(-c4ccccc4)c3=O)c2c1 [KB-163] | -30 ± 1.77 | –
N#CCCn1cc(C(N)=O)c(-c2cccc(Cl)c2)n1 [KB-164] | -3 ± 9.7 | –
N#CCCn1cc(C(=O)Nc2nccs2)c(-c2ccc3c(c2)OCCO3)n1 [KB-165] | 33 ± 5.3 | –
COc1ccc(NC(=O)c2cn(CCC#N)nc2-c2cccs2)cc1 [KB-166] | 17 ± 3.91 | –
Cc1[nH]n(-c2ccccc2)c(=O)c1C1(C(F)(F)F)C(=O)Nc2c1c(=O)[nH]c(=O)n2Cc1ccccc1 (centres unmarked) [KB-167] | 53 ± 4.18 | Phagocytic index (PI) (5 μM): 14; inhibition at 5 µM [2]: 53%
Cc1cc(NC(=O)c2cnn3c2NC(c2ccco2)CC3C(F)(F)F)n(-c2ccccc2)n1 (centres unmarked) [KB-168] | 23 ± 3.86 | –
Cc1c(NC(=O)c2ccn3c(C(F)(F)F)cc(-c4ccccc4)nc23)c(=O)n(-c2ccccc2)n1C [KB-169] | 0 | –
CSc1nc2ccc(S(=O)(=O)Nc3c(C)n(C)n(-c4ccccc4)c3=O)cc2s1 [KB-170] | -13 ± 4.31 | –
CCOC(=O)c1cnn(-c2ccccc2)c1NC(=O)CSc1nc(SC)ns1 [KB-171] | 7 ± 0.39 | –
COc1ccc(S(=O)(=O)n2cccn2)cc1C(C)(C)C [KB-173] | -8 ± 8.88 | –
Cc1nn(C(=O)N(C)C)c(C)c1CN1C(=O)c2ccccc2C1=O [KB-174] | 39 ± 9.53 | –
Cc1coc(C)c1C1=NN(S(C)(=O)=O)C(c2cccs2)C1 (centres unmarked) [KB-175] | 50 ± 1.45 | Phagocytic index (PI) (5 μM): 15; inhibition at 5 µM [2]: 50%
COc1cc(S(=O)(=O)n2cccn2)c(OC)cc1Cl [KB-176] | -10 ± 7.06 | –
CCc1cccc(NS(=O)(=O)c2cnn(CC)c2C)c1 [KB-177] | 4 ± 9.76 | –
COc1ccc(CNC(=O)c2c(Cl)cnn2C)cc1OC [KB-178] | 53 ± 5.11 | Phagocytic index (PI) (5 μM): 29; inhibition at 5 µM [2]: 53%

Structure (SMILES) | inhibition at 5 µM [1] [%] | also measured
CCn1cc(S(=O)(=O)NCCc2ccc(OC)c(OC)c2)cn1 [KB-179] | 53 ± 1.18 | Phagocytic index (PI) (5 μM): 14; inhibition at 5 µM [2]: 53%
Cc1nn(C)cc1S(=O)(=O)NCc1ccccc1Cl [KB-180] | -42 ± 8.81 | –
CCOC(=O)c1c(C)nn(-c2nc(C)cc(C)n2)c1N [KB-181] | -11 ± 10.3 | Phagocytic index (PI) (5 μM): 37; inhibition at 5 µM [2]: 45%
Cn1ccc(C(=O)Nc2ccc3c(c2)OCCO3)n1 [KB-182] | 55 ± 3.65 | Phagocytic index (PI) (5 μM): 28; inhibition at 5 µM [2]: 55%
Cc1cc(=O)n(CCN2CCOCC2)c2c1c(C)nn2-c1ccccc1 [KB-183] | -28 ± 9.96 | –
CCOC(=O)c1cnn(C)c1NC(=O)C(CC)Sc1cc(C)ncn1 (centres unmarked) [KB-184] | 7 ± 2.92 | –
COc1ccc(-c2cc(C(=O)O)nn2C2CCS(=O)(=O)C2)cc1 (centres unmarked) [KB-185] | -3 ± 3.6 | –
Cc1c(NC(=O)CSc2nc3c(c(=O)[nH]2)CCC3)c(=O)n(-c2ccccc2)n1C [KB-186] | 55 ± 8.43 | Phagocytic index (PI) (5 μM): 28; inhibition at 5 µM [2]: 55%
COc1ccccc1-n1nc(C(C)=O)c(C(C)=O)c1C [KB-187] | -16 ± 9.33 | –
CC(=O)n1nc(C)c(S(=O)(=O)N2CCCC2)c1C [KB-188] | -26 ± 7.94 | –
Cc1nn(C)c(C)c1-c1cc(C(=O)O)[nH]n1 [KB-189] | 52 ± 4.75 | Phagocytic index (PI) (5 μM): 30; inhibition at 5 µM [2]: 52%
Cc1nn(-c2ccc3nnc(C)n3n2)c2c1C(c1cccs1)CC(=O)N2 (centres unmarked) [KB-190] | 56 ± 1.24 | Phagocytic index (PI) (5 μM): 27; inhibition at 5 µM [2]: 56%
O=c1cc(CSc2nc3ccccc3s2)[nH]c2[nH]n(-c3ccccc3)c(=O)c12 [KB-191] | -23 ± 7.85 | –
Cn1ncc(Br)c1C(=O)N1CCCC1c1ccc(F)cc1 (centres unmarked) [KB-192] | -29 ± 9.54 | –
COc1cc(-c2cc[nH]n2)cc(OC)c1OC [KB-194] | 39 ± 4.96 | –
COc1cccc(-c2cc(C(=O)Nc3cc(C)nn3-c3ccccc3)on2)c1 [KB-195] | 25 ± 6.36 | –
Cc1ccccc1C1CCCN1C(=O)Cn1nc(C(F)(F)F)cc1C (centres unmarked) [KB-196] | 24 ± 5.76 | –
Cc1c(S(=O)(=O)N2CCCC2c2ccccc2Cl)cnn1C(F)F (centres unmarked) [KB-197] | 45 ± 4.97 | –
CCn1nccc1C1CCCN1S(=O)(=O)c1cc(C)c(C)cc1C (centres unmarked) [KB-198] | 75 ± 4.76 | Phagocytic index (PI) (5 μM): 9; IC50 [3]: 8.43 µM; inhibition at 5 µM [2]: 75%; EC50 [3]: > 10 µM
CCn1nccc1C1CCCN1S(=O)(=O)c1cc(C)ccc1C (centres unmarked) [KB-198a] | – | IC50 [3]: 227 µM
CCOC(=O)c1cnn(-c2ncnc3c2cnn3-c2ccc(F)cc2)c1N [KB-199] | 40 ± 5.46 | Phagocytic index (PI) (5 μM): 40; inhibition at 5 µM [2]: 40%
